According to US20230042729A1, “PEPTIDE CONSTRUCTS AND COMPOSITIONS” (DIET4LIFE APS, priority 2019, published 2023):
No end group written: not given here.

Legend:
[1] = Stability of peptides in intestine homogenate, remaining activity read in intestinal cells; type: in vitro ADME, mice; conditions: for Stability in intestine (activity remaining): octapeptides, % activity left after 30 min incubation in intestine homogenate at 37° C.
Protocol: Small intestines from 20 Swiss-Webster males were homogenized in 350 ml Dulbecco's phosphate-buffered saline (PBS) (pH 7.4) (ThermoFischer Scientific, Denmark) with a IKA® basic 18 Ultra-Turrax tissue homogenizer set a speed 5 followed by filtration using 100 μm nylon mesh filter. Protein concentration was 6 mg/ml using the bicinconinic acid assay (ThermoFischer Scientific, Denmark) and bovine serum albumin as standard. The intestine homogenate was diluted 10 times in HBSS containing 25 mM HEPES (pH 7.4), and further diluted 30×, 90×, 270×, 810× or 2430× before incubation with peptides. All solutions were prewarmed to 37° C. before mixing with peptide solutions.
Peptides were incubated at 10^−5 M with dilutions of small intestine homogenate at 37° C. for 90 minutes with shaking. Reactions were stopped by addition of 1 M phosphoric acid (final 0.4 M, pH˜1.2). Each peptide incubation mix was then neutralized with NaOH to pH 7.2-7.4 and immediately tested for activity in intestinal cells. Control for zero degradation, i.e. addition of 1 M phosphoric acid prior to addition of intestine homogenate, was included for each peptide. […]
(§1) The 20 hexapeptides with systematic N-terminal substitutions (X-KPYIL) (Schafer-N, Denmark) and NT (8-13) was incubated at 10^−6 M in either FBS for 10 minutes or with 270× diluted intestinal homogenate for 30 minutes at 37° C. with shaking. The degradation was stopped with 1 M phosphoric acid. Peptide solutions were neutralized with NaOH (pH 7.2-7.4), diluted and immediately tested for bioactivity using murine intestinal cells. Determination of EC50 for stimulation of cells allowed calculation of recovered peptide.

murine intestinal cells = murine intestinal cells (Mus musculus, UniProt O88319); experiment: Ca2+ flux / calcium response assay (cell signaling activity); type: cell-based
murine intestinal cells, sequence (O88319 whole entry): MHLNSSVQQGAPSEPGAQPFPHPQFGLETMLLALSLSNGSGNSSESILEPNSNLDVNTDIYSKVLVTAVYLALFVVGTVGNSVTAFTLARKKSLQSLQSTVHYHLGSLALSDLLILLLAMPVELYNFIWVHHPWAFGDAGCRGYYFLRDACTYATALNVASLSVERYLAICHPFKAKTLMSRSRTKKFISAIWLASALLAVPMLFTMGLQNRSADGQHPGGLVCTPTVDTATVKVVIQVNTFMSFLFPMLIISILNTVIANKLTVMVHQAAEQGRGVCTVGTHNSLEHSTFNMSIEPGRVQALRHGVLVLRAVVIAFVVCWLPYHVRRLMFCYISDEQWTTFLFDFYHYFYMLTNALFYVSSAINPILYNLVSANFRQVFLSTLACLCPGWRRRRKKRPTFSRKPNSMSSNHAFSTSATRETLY
Protocol: Ca^2+ Flux Assay/Calcium Response Assay:
Elevation of intracellular calcium level was measured using the fluorescent calcium chelating dye Fluo-4 AM (ThermoFischer Scientific, Denmark). Briefly, cells were grown as a monolayer in 96-well tissue culture plates (Sarstedt, Germany) to near confluence in appropriate growth medium as described in the cell culture section.
All test compounds were dissolved in water, and then diluted in 1×HBSS containing 25 mM HEPES (pH 7.4), 1% BSA and 2% ink. […]

[2] = Stability of peptides in serum, remaining activity read in intestinal cells; type: in vitro ADME, Bovine; conditions: for Stability in serum (activity remaining): octapeptides, fraction of peptide activity left after 10 min of incubation in serum at 37° C. compared with undigested sample
Protocol: All peptides were incubated at 10^−5 M with Fetal Bovine Serum (FBS; final concentration of 66.7%) (Sigma Aldrich, Denmark) at 37° C. for 3 hours. The peptide degradation was terminated using 1 M phosphoric acid (final 0.4 M, pH˜1.2) and neutralized to pH 7.2-7.4 with NaOH before testing activity in intestinal cells. As for small intestine homogenates, a zero degradation control was included for each peptide.
DC7-2, NT, DKPYIL and NT-(8-13) (final concentration of 10^−6 M) were incubated either with FBS or with 270× diluted intestinal homogenate at 37° C. for various time points with shaking. Degradation was stopped with 1 M phosphoric acid and the samples were subsequently neutralized and immediately tested with intestinal cells as described above. Control for zero degradation was included for each peptide as above.
as §1

Compound	EC50 (murine intestinal cells)	further results
HSDKPYIL [Peptide 36042, H SDKPYIL]	3.63 nM	Stability in intestine (activity remaining) [1]: 6.4%; Stability in serum (activity remaining) [2]: 0.0980
SDKPYIL [Peptide 36031, S DKPYIL]	5 nM	–
QPYIL [Peptide 36009, Q PYIL]	20.5 nM	–
KPYIL [Peptide 36004, K PYIL]	7.71 nM	–
DSDKPYIL [Peptide 36038, D SDKPYIL]	6.15 nM	Stability in intestine (activity remaining) [1]: 29.9%; Stability in serum (activity remaining) [2]: 0.0947
KSDKPYIL [Peptide 36044, K SDKPYIL]	10.7 nM	Stability in intestine (activity remaining) [1]: 6.6%; Stability in serum (activity remaining) [2]: 0.0527
LPYIL [Peptide 36005, L PYIL]	41 nM	–
ISDKPYIL [Peptide 36043, I SDKPYIL]	6.87 nM	Stability in intestine (activity remaining) [1]: 6.0%; Stability in serum (activity remaining) [2]: 0.0956
PPYIL [Peptide 36008, P PYIL]	9.61 nM	–
YPYIL [Peptide 36015, Y PYIL]	140 nM	–
ADKPYIL [Peptide 36016, A DKPYIL]	3.52 nM	–
GSDKPYIL [Peptide 36041, G SDKPYIL]	4.07 nM	Stability in intestine (activity remaining) [1]: 10.3%; Stability in serum (activity remaining) [2]: 0.0912
MKPYIL [Peptide 35986, M KPYIL]	0.388 nM	–
TKPYIL [Peptide 35992, T KPYIL]	1.16 nM	–
LDKPYIL [Peptide 36025, L DKPYIL]	6.41 nM	–
WKPYIL [Peptide 35994, W KPYIL]	5.58 nM	–
EDKPYIL [Peptide 36019, E DKPYIL]	3.96 nM	–
IPYIL [Peptide 36003, 1 PYIL]	23.8 nM	–
YDKPYIL [Peptide 36035, Y DKPYIL]	6.83 nM	–
FSDKPYIL [Peptide 36040, F SDKPYIL]	3.85 nM	Stability in intestine (activity remaining) [1]: 3.4%; Stability in serum (activity remaining) [2]: 0.0944
YKPYIL [Peptide 35995, Y KPYIL]	3.34 nM	–
CC[C@H](C)[C@H](NC(=O)[C@H](Cc1ccc(O)cc1)NC(=O)[C@@H]1CCCN1C(=O)[C@@H](N)CCCNC(=N)N)C(=O)N[C@@H](CC(C)C)C(=O)O [Peptide 36010, R PYIL]	1.18 nM	–
QKPYIL [Peptide 35989, Q KPYIL]	0.378 nM	–

Compound	EC50 (murine intestinal cells)	further results
MSDKPYIL [Peptide 36046, M SDKPYIL]	4.88 nM	Stability in intestine (activity remaining) [1]: 3.8%; Stability in serum (activity remaining) [2]: 0.0762
SSDKPYIL [Peptide 36051, S SDKPYIL]	4.27 nM	Stability in intestine (activity remaining) [1]: 19.5%; Stability in serum (activity remaining) [2]: 0.0609
DKPYIL [Peptide 35978, D KPYIL]	–	stability in intestine homogenate compared to neurotensin (8-13) RRPYIL [1]: 100-1000 ×; stability in serum compared to neurotensin (8-13) RRPYIL [2]: around 100 times
GPYIL [Peptide 36001, G PYIL]	17.4 nM	–
LSDKPYIL [Peptide 36045, L SDKPYIL]	8.06 nM	Stability in intestine (activity remaining) [1]: 7.9%; Stability in serum (activity remaining) [2]: 0.0917
TDKPYIL [Peptide 36032, T DKPYIL]	5.61 nM	–
WDKPYIL [Peptide 36034, W DKPYIL]	14.1 nM	–
CPYIL [Peptide 35997, C PYIL]	69.9 nM	–
RDKPYIL [Peptide 36030, R DKPYIL]	4.68 nM	–
TSDKPYIL [Peptide 36052, T SDKPYIL]	5.63 nM	Stability in intestine (activity remaining) [1]: 8.4%; Stability in serum (activity remaining) [2]: 0.0535
HDKPYIL [Peptide 36022, H DKPYIL]	2.65 nM	–
VKPYIL [Peptide 35993, V KPYIL]	1.17 nM	–
MPYIL [Peptide 36006, M PYIL]	16.2 nM	–
IDKPYIL [Peptide 36023, I DKPYIL]	4.77 nM	–
VDKPYIL [Peptide 36033, V DKPYIL]	4.94 nM	–
QDKPYIL [Peptide 36029, Q DKPYIL]	4.97 nM	–
WSDKPYIL [Peptide 36054, W SDKPYIL]	8.87 nM	Stability in intestine (activity remaining) [1]: 3.6%; Stability in serum (activity remaining) [2]: 0.0426
ESDKPYIL [Peptide 36039, E SDKPYIL]	4.82 nM	Stability in intestine (activity remaining) [1]: 23.0%; Stability in serum (activity remaining) [2]: 0.0964
DDKPYIL [Peptide 36018, D DKPYIL]	10.5 nM	–
PKPYIL [Peptide 35988, P KPYIL]	0.232 nM	–
RSDKPYIL [Peptide 36050, R SDKPYIL]	4.01 nM	Stability in intestine (activity remaining) [1]: 2.6%; Stability in serum (activity remaining) [2]: 0.0735
CSDKPYIL [Peptide 36037, C SDKPYIL]	5.44 nM	Stability in intestine (activity remaining) [1]: 14.0%; Stability in serum (activity remaining) [2]: 0.0963
FDKPYIL [Peptide 36020, F DKPYIL]	9.52 nM	–

Compound	EC50 (murine intestinal cells)	further results
DPYIL [Peptide 35998, D PYIL]	158 nM	–
TPYIL [Peptide 36012, T PYIL]	43.6 nM	–
VPYIL [Peptide 36013, V PYIL]	37.8 nM	–
GDKPYIL [Peptide 36021, G DKPYIL]	2.91 nM	–
APYIL [Peptide 35996, A PYIL]	11.8 nM	–
IKPYIL [Peptide 35983, I KPYIL]	0.24 nM	–
EPYIL [Peptide 35999, E PYIL]	102 nM	–
HPYIL [Peptide 36002, H PYIL]	35.6 nM	–
KDKPYIL [Peptide 36024, K DKPYIL]	11.2 nM	–
VSDKPYIL [Peptide 36053, V SDKPYIL]	5.15 nM	Stability in intestine (activity remaining) [1]: 5.6%; Stability in serum (activity remaining) [2]: 0.0488
NPYIL [Peptide 36007, N PYIL]	39.3 nM	–
NKPYIL [Peptide 35987, N KPYIL]	0.5 nM	–
PSDKPYIL [Peptide 36048, P SDKPYIL]	4.14 nM	Stability in intestine (activity remaining) [1]: 4.6%; Stability in serum (activity remaining) [2]: 0.0772
SKPYIL [Peptide 35991, S KPYIL]	1.15 nM	–
FPYIL [Peptide 36000, F PYIL]	19.5 nM	–
MDKPYIL [Peptide 36026, M DKPYIL]	6.08 nM	–
YSDKPYIL [Peptide 36055, Y SDKPYIL]	5.92 nM	Stability in intestine (activity remaining) [1]: 3.0%; Stability in serum (activity remaining) [2]: 0.0491
LKPYIL [Peptide 35985, L KPYIL]	0.33 nM	–
SPYIL [Peptide 36011, S PYIL]	22.5 nM	–
CDKPYIL [Peptide 36017, C DKPYIL]	7.72 nM	–
NDKPYIL [Peptide 36027, N DKPYIL]	5.92 nM	–
PDKPYIL [Peptide 36028, P DKPYIL]	4.67 nM	–
